Results reported in PMC6199309, “A therapeutic approach to pantothenate kinase associated neurodegeneration” (Nature Communications, 2018).
“Also recorded” adds a separate entry of the source.

Tests used:
C3A cells = test: Cell growth and macromolecular synthesis; format: cell-based, human; conditions: 10 μM
Method: For quantifying protein, DNA and lipid synthesis, C3A cells were first seeded at 2 × 10^6 in 60 mm-dishes and grown overnight in maintenance medium. Cells were washed once with phosphate buffered saline (PBS) and 2 ml of labeling medium plus radiochemical was added to start the 24 h incubation. […]. […] The labeling medium contained 0.1% dimethylsulfoxide (DMSO; control) or 10 μM compound in 0.1% DMSO. Cells were harvested, washed once with PBS and harvested either by trypsinization and vacuum filtration through 0.45 micron discs (Millipore, HAWP02500) for protein and DNA determinations, or by scraping and extraction in 100 μl H2O + 240 μl methanol/acetic acid 98:2 + 100 μl CHCl3 for lipid determination. Filters were washed three times with PBS, air dried and counted with a Liquid Scintillation Analyzer. Radioactivity was normalized to cell numbers and viability was >95%. Cellular lipid emulsions were separated by centrifugation and the lower phases were quantified by liquid scintillation counting and normalized to cell numbers.
(b) Pathway labeling of C3A cells treated with either DMSO or DMSO […]
[…]. labeled amino acid mixture, DNA synthesis was determined by measuring the incorporation of [3H]thymidine, and lipid synthesis was determined by labeling with [U-14C]glucose and measuring the incorporation of label into the lipid fraction as described in Methods. […]

MYLK4 = biological target: T1, MYLK4 (Homo sapiens, UniProt Q86YV6); test: KINOMEscan; format: binding; conditions: read-out: %Ctrl @ 10000nM
T1 construct: purchased DiscoverX KINOMEscan

HCK = biological target: T2, HCK (Homo sapiens, UniProt P08631); test: KINOMEscan; format: binding; conditions: read-out: %Ctrl @ 10000nM
T2 construct: purchased DiscoverX KINOMEscan

SRMS = biological target: T3, SRMS (Homo sapiens, UniProt Q9H3Y6); test: KINOMEscan; format: binding; conditions: read-out: %Ctrl @ 10000nM
T3 construct: purchased DiscoverX KINOMEscan

MKNK2 = biological target: T4, MKNK2 (Homo sapiens, UniProt Q9HBH9); test: KINOMEscan; format: binding; conditions: read-out: %Ctrl @ 10000nM
T4 construct: purchased DiscoverX KINOMEscan

IRAK4 = biological target: T5, IRAK4 (Homo sapiens, UniProt Q9NWZ3); test: KINOMEscan; format: binding; conditions: read-out: %Ctrl @ 10000nM
T5 construct: purchased DiscoverX KINOMEscan

PIK3CG = biological target: T6, PIK3CG (Homo sapiens, UniProt P48736); test: KINOMEscan; format: binding; conditions: read-out: %Ctrl @ 10000nM
T6 construct: purchased DiscoverX KINOMEscan

CSNK1G1 = biological target: T7, CSNK1G1 (Homo sapiens, UniProt Q9HCP0); test: KINOMEscan; format: binding; conditions: read-out: %Ctrl @ 10000nM
T7 construct: purchased DiscoverX KINOMEscan

PKAC-alpha = biological target: T8, PKAC-alpha (Homo sapiens, UniProt P17612); test: KINOMEscan; format: binding; conditions: read-out: %Ctrl @ 10000nM
T8 construct: purchased DiscoverX KINOMEscan

TXK = biological target: T9, TXK (Homo sapiens, UniProt P42681); test: KINOMEscan; format: binding; conditions: read-out: %Ctrl @ 10000nM
T9 construct: DNA label for qPCR (T7 phage fusion or DNA tag); purchased DiscoverX scanMAX; host or cells: E. coli BL21-derived (T7 phage) or HEK-293

FLT1 = biological target: T10, FLT1 (Homo sapiens, UniProt P17948); test: KINOMEscan; format: binding; conditions: read-out: %Ctrl @ 10000nM
T10 construct: purchased DiscoverX KINOMEscan

CDK3 = biological target: T11, CDK3 (Homo sapiens, UniProt Q00526); test: KINOMEscan; format: binding; conditions: read-out: %Ctrl @ 10000nM
T11 construct: purchased DiscoverX KINOMEscan

BMX = biological target: T12, BMX (Homo sapiens, UniProt P51813); test: KINOMEscan; format: binding; conditions: read-out: %Ctrl @ 10000nM
T12 construct: purchased DiscoverX KINOMEscan

[1] = biological target: T13, ABL1(F317L)-phosphorylated (Homo sapiens, UniProt P00519, F317L); test: KINOMEscan; format: binding; conditions: read-out: %Ctrl @ 10000nM
T13 construct: purchased DiscoverX KINOMEscan

LCK = biological target: T14, LCK (Homo sapiens, UniProt P06239); test: KINOMEscan; format: binding; conditions: read-out: %Ctrl @ 10000nM
T14 construct: purchased DiscoverX KINOMEscan

LATS1 = biological target: T15, LATS1 (Homo sapiens, UniProt O95835); test: KINOMEscan; format: binding; conditions: read-out: %Ctrl @ 10000nM
T15 construct: purchased DiscoverX KINOMEscan

PIK3CA(C420R) = biological target: T16, PIK3CA(C420R) (Homo sapiens, UniProt P42336, C420R); test: KINOMEscan; format: binding; conditions: read-out: %Ctrl @ 10000nM
T16 construct: purchased DiscoverX KINOMEscan

CAMK2B = biological target: T17, CAMK2B (Homo sapiens, UniProt Q13554); test: KINOMEscan; format: binding; conditions: read-out: %Ctrl @ 10000nM
T17 construct: purchased DiscoverX KINOMEscan

SRPK1 = biological target: T18, SRPK1 (Homo sapiens, UniProt Q96SB4); test: KINOMEscan; format: binding; conditions: read-out: %Ctrl @ 10000nM
T18 construct: purchased DiscoverX KINOMEscan

GRK3 = biological target: T19, GRK3 (Homo sapiens, UniProt P35626); test: KINOMEscan; format: binding; conditions: read-out: %Ctrl @ 10000nM
T19 construct: DNA tag for qPCR (T7 phage fusion or DNA label); purchased DiscoverX KdELECT; host or cells: E. coli BL21-derived (T7 phage) or HEK-293

CDC2L5 = biological target: T20, CDC2L5 (Homo sapiens, UniProt Q14004); test: KINOMEscan; format: binding; conditions: read-out: %Ctrl @ 10000nM
T20 construct: purchased DiscoverX KINOMEscan

ERK4 = biological target: T21, ERK4 (Homo sapiens, UniProt P31152); test: KINOMEscan; format: binding; conditions: read-out: %Ctrl @ 10000nM
T21 construct: purchased DiscoverX KINOMEscan

[2] = biological target: T22, ABL1(F317I)-phosphorylated (Homo sapiens, UniProt P00519, F317I); test: KINOMEscan; format: binding; conditions: read-out: %Ctrl @ 10000nM
T22 construct: purchased DiscoverX KINOMEscan

TNIK = biological target: T23, TNIK (Homo sapiens, UniProt Q9UKE5); test: KINOMEscan; format: binding; conditions: read-out: %Ctrl @ 10000nM
T23 construct: purchased DiscoverX KINOMEscan

ULK2 = biological target: T24, ULK2 (Homo sapiens, UniProt Q8IYT8); test: KINOMEscan; format: binding; conditions: read-out: %Ctrl @ 10000nM
T24 construct: DNA label for qPCR (T7 phage fusion or DNA tag); purchased DiscoverX scanMAX; host or cells: E. coli BL21-derived (T7 phage) or HEK-293

FLT3(K663Q) = biological target: T25, FLT3(K663Q) (Homo sapiens, UniProt P36888, K663Q); test: KINOMEscan; format: binding; conditions: read-out: %Ctrl @ 10000nM
T25 construct: purchased DiscoverX KINOMEscan

PIP5K2B = biological target: T26, PIP5K2B (Homo sapiens, UniProt P78356); test: KINOMEscan; format: binding; conditions: read-out: %Ctrl @ 10000nM
T26 construct: purchased DiscoverX KINOMEscan

CTK = biological target: T27, CTK (Homo sapiens, UniProt P42679); test: KINOMEscan; format: binding; conditions: read-out: %Ctrl @ 10000nM
T27 construct: purchased DiscoverX KINOMEscan

VEGFR2 = biological target: T28, VEGFR2 (Homo sapiens, UniProt P35968); test: KINOMEscan; format: binding; conditions: read-out: %Ctrl @ 10000nM
T28 construct: DNA label for qPCR (T7 phage fusion or DNA tag); purchased DiscoverX scanMAX; host or cells: E. coli BL21-derived (T7 phage) or HEK-293

[3] = biological target: T29, ABL1(Q252H)-nonphosphorylated (Homo sapiens, UniProt P00519, Q252H); test: KINOMEscan; format: binding; conditions: read-out: %Ctrl @ 10000nM
T29 construct: purchased DiscoverX KINOMEscan

HIPK2 = biological target: T30, HIPK2 (Homo sapiens, UniProt Q9H2X6); test: KINOMEscan; format: binding; conditions: read-out: %Ctrl @ 10000nM
T30 construct: purchased DiscoverX KINOMEscan

BRSK2 = biological target: T31, BRSK2 (Homo sapiens, UniProt Q8IWQ3); test: KINOMEscan; format: binding; conditions: read-out: %Ctrl @ 10000nM
T31 construct: purchased DiscoverX KINOMEscan

FER = biological target: T32, FER (Homo sapiens, UniProt P16591); test: KINOMEscan; format: binding; conditions: read-out: %Ctrl @ 10000nM
T32 construct: purchased DiscoverX KINOMEscan

LYN = biological target: T33, LYN (Homo sapiens, UniProt P07948); test: KINOMEscan; format: binding; conditions: read-out: %Ctrl @ 10000nM
T33 construct: purchased DiscoverX KINOMEscan

T28 sequence (P35968 20-1356): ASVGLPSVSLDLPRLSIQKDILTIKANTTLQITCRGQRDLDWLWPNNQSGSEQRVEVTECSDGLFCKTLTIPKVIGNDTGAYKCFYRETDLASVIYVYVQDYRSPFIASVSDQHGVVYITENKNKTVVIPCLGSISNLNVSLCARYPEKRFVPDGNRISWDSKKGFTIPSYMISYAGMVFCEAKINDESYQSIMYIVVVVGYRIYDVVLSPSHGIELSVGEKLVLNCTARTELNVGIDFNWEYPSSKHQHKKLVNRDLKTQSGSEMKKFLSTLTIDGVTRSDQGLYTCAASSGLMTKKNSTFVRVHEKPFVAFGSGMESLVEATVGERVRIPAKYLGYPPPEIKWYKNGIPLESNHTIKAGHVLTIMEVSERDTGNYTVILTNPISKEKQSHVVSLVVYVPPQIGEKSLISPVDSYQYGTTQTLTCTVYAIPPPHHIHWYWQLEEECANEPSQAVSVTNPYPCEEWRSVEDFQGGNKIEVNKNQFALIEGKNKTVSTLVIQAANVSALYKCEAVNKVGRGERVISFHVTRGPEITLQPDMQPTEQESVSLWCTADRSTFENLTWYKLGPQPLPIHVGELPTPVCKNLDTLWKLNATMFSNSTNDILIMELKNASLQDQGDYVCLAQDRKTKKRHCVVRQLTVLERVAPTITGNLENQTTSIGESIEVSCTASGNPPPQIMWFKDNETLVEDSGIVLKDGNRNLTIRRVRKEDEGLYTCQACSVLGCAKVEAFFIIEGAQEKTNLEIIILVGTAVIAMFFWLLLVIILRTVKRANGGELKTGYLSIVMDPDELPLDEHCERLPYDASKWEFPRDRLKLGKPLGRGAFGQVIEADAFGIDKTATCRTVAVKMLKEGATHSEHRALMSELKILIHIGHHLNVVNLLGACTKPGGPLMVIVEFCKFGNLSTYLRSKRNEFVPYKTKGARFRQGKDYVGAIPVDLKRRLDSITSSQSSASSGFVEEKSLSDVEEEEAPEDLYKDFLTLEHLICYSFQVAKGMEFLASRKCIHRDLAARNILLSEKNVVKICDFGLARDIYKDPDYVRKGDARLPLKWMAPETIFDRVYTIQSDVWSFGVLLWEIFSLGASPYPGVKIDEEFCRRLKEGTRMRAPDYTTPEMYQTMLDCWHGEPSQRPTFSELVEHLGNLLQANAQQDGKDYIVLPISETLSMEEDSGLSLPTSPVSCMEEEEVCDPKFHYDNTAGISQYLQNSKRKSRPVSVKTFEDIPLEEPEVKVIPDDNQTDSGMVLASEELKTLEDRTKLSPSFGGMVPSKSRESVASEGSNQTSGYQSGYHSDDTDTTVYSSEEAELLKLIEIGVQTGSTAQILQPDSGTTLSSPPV
T32 sequence (P16591 whole entry): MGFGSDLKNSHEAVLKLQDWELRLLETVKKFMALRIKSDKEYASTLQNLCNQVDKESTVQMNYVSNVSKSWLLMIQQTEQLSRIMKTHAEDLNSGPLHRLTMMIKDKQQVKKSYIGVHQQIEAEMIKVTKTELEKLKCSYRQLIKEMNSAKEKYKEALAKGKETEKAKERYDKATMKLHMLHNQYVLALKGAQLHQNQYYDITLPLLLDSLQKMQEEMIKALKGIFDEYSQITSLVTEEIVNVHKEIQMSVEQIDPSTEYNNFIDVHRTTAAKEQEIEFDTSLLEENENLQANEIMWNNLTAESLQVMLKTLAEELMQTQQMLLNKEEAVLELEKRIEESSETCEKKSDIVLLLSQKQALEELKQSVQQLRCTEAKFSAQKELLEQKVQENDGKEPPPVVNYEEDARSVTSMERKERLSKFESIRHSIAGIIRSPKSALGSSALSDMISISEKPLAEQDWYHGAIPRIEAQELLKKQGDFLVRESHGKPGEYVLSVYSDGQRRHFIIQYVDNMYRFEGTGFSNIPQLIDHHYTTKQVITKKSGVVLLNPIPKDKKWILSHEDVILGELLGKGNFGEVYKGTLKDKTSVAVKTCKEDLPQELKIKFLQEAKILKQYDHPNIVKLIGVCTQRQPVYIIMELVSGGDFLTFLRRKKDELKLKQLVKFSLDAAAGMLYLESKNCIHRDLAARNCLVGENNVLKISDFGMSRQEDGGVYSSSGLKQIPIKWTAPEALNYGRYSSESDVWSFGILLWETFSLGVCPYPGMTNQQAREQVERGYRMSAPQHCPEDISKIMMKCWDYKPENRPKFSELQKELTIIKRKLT
T21 sequence (P31152 whole entry): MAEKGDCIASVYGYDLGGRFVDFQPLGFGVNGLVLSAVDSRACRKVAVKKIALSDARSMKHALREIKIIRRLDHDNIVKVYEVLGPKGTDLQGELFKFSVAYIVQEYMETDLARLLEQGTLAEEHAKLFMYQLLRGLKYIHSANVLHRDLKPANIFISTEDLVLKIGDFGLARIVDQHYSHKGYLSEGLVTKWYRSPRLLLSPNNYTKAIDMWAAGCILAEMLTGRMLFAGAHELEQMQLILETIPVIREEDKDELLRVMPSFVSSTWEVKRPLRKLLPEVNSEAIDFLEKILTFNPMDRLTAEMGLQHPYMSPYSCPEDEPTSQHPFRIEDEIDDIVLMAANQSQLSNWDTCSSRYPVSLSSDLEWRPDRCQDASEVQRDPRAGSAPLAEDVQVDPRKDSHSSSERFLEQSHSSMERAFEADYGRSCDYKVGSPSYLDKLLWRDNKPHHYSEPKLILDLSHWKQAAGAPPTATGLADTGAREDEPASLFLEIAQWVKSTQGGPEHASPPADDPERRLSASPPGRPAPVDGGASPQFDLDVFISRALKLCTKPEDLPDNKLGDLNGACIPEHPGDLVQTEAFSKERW
T31 sequence (Q8IWQ3 whole entry): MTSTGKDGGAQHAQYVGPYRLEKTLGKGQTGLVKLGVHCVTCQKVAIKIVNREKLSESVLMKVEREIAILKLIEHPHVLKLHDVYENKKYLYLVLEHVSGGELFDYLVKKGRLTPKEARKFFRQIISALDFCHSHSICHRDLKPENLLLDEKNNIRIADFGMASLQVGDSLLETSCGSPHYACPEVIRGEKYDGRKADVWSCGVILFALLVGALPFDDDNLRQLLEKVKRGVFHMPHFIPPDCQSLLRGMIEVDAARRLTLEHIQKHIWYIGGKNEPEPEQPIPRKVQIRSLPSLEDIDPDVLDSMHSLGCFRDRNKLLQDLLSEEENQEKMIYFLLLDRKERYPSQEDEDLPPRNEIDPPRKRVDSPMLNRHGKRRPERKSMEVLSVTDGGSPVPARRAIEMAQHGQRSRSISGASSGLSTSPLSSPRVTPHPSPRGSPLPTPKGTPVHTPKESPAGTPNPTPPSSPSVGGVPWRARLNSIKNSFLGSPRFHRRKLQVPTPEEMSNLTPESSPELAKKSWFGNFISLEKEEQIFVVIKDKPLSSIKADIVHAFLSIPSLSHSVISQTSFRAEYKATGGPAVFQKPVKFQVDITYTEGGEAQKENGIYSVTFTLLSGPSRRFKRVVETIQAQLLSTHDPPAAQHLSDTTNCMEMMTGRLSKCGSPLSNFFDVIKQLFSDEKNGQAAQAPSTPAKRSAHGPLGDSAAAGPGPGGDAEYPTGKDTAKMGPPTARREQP
T14 sequence (P06239 whole entry): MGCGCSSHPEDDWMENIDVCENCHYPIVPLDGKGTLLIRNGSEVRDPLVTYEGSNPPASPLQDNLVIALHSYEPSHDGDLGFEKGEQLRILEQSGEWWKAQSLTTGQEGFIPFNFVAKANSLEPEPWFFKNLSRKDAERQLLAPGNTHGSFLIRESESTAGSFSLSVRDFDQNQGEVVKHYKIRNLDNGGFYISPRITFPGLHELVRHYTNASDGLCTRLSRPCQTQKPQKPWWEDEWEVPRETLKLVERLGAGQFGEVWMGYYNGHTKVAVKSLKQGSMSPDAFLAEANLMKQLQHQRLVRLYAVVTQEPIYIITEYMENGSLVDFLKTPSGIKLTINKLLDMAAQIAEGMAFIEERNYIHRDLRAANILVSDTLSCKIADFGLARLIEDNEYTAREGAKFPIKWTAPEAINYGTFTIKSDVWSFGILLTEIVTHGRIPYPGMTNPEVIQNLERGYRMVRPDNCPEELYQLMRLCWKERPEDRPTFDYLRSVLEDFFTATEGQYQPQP
T11 sequence (Q00526 whole entry): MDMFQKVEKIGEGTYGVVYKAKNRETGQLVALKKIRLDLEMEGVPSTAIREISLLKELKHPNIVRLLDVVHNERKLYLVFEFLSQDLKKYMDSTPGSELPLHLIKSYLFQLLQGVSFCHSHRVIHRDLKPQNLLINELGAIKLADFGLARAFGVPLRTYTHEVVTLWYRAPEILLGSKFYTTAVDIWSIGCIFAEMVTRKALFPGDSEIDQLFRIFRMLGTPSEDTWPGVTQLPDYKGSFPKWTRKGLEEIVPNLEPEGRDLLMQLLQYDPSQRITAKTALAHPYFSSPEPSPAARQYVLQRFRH
T1 sequence (Q86YV6 whole entry): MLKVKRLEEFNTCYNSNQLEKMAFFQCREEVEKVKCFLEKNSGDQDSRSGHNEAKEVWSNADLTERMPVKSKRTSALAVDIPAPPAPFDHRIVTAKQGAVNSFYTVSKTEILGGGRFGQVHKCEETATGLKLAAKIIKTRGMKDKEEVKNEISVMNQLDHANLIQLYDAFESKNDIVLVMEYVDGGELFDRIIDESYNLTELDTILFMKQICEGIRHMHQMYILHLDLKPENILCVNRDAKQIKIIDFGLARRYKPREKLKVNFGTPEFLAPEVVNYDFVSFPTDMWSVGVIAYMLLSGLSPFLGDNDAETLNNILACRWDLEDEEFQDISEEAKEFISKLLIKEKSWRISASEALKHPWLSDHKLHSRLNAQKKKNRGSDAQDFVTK

## CC(C)c1ccc(CC(=O)N2CCN(c3ccc(C#N)nn3)CC2)cc1 [PZ-2891, 6-(4-(2-(4-isopropylphenyl)acetyl)piperazin-1-yl)pyridazine-3-carbonitrile]
C3A cells
  cell viability (cell growth, synthesis of DNA, protein and lipid): no differences between control and PZ-2891; also recorded: did not impact cell viability
MYLK4
  remaining binding at 10 µM: 92%
HCK
  remaining binding at 10 µM: 79%
SRMS
  remaining binding at 10 µM: 72%
MKNK2
  remaining binding at 10 µM: 79%
IRAK4
  remaining binding at 10 µM: 93%
PIK3CG
  remaining binding at 10 µM: 96%
CSNK1G1
  remaining binding at 10 µM: 92%
PKAC-alpha
  remaining binding at 10 µM: 87%
TXK
  remaining binding at 10 µM: 92%
FLT1
  remaining binding at 10 µM: 100%
CDK3
  remaining binding at 10 µM: 97%
BMX
  remaining binding at 10 µM: 100%
[1]
  remaining binding at 10 µM: 100%
LCK
  remaining binding at 10 µM: 98%
LATS1
  remaining binding at 10 µM: 86%
PIK3CA(C420R)
  remaining binding at 10 µM: 76%
CAMK2B
  remaining binding at 10 µM: 88%
SRPK1
  remaining binding at 10 µM: 100%
GRK3
  remaining binding at 10 µM: 35%
CDC2L5
  remaining binding at 10 µM: 81%
ERK4
  remaining binding at 10 µM: 97%
[2]
  remaining binding at 10 µM: 89%
TNIK
  remaining binding at 10 µM: 91%
ULK2
  remaining binding at 10 µM: 86%
FLT3(K663Q)
  remaining binding at 10 µM: 88%
PIP5K2B
  remaining binding at 10 µM: 88%
CTK
  remaining binding at 10 µM: 77%
VEGFR2
  remaining binding at 10 µM: 75%
[3]
  remaining binding at 10 µM: 97%
HIPK2
  remaining binding at 10 µM: 100%
BRSK2
  remaining binding at 10 µM: 81%
FER
  remaining binding at 10 µM: 88%
LYN
  remaining binding at 10 µM: 79%
